We go through one molecule from US7276248B2, “Conjugate having a cleavable linkage for use in a liposome” (ALZA Corporation, priority 1999, dated 2007).

Molecules are shown by their SMILES. Like-named read-outs stand apart in the source and are kept apart here.

The subject of data set [1] is M109 cells, a mouse lung carcinoma line. Briefly: In vitro cytotoxicity / growth rate of M109 cells, methylene blue staining, 72 hour continuous exposure. The data set is classed as cell-based. The following applies: read-out: IC50 Values for M109 tumor cells after 72 hour culture with continuous exposure to formulation.
Protocol: IC50 values were taken as the drug concentration which caused a 50% inhibition of the control growth rate (IC50), as described in Example 6.
Upon completion of the assay, the cells were fixed and evaluated using the methylene blue staining assay.
In the assay, 1500 M109 mouse carcinoma cells from exponentially growing cultures in 200 μl aliquots (RPMI-1640 medium+10% fetal bovine serum) were plated onto 96 well flat-bottom microtiter plates. […] For each 10-fold increase in drug concentration, four drug concentration points were tested. Each test was performed in triplicate wells and in two parallel plates. The cells were treated continuously for 72 hours.
After the 72 hour treatment period, the cultures were fixed by the addition of 50 μl 2.5% glutaraldehyde to each well for 10 minutes. […] The dye was extracted with 200 μl 0.1 N HCl for 60 minutes at 37° C. and the optical density was determined using a microplate spectrophotometer.
The cell number determined by counting cells with a hemocytometer correlated well with the spectrophotometric absorbance. The initial cell plating density was chosen to ensure a linear relationship between cell number and absorbance at the end of the study. In each study, six wells were fixed before drug was added to determine the initial average absorbance. […]
The growth rate was calculated as GR=(ln 2/DT). […]
A short description of data set [2]: In vivo pharmacokinetics in rats after single bolus intravenous injection. The following applies: time points greater than about 5 minutes.
Protocol: The in vivo pharmacokinetics of the liposomes containing cholesterol and the cholesterol-free liposome formulation was determined in rats.
Eight rats were randomized into treatment groups as follows:
A single intravenous injection of the test formulation was administered as a bolus dose. Blood samples were taken from each animal at the following times after injection: 30 seconds, 15 minutes, 30 minutes, 1 hour, 2 hours, 4 hours, 8 hours, 24 hours, 48 hours, 72 hours and 96 hours. […] A 200 mM iodoacetamine solution was prepared by placing 199.3 mg of iodoacetamide in 5.1 mL of 7.5% EDTA. 15 μL of the 200 mM iodoacetamide solution was placed in each 1 μL of blood sample.
The final volume was adjusted to 1 mL with methanol. […] The samples were spun down at 3,000 rpm for 10 minutes at room temperature. 300 μL of supernatant was transferred to HPLC vials containing 300 μL insert for injection.
100 μL of plasma sample was denatured with 900 μL of methanol followed by centrifugation for 10 minutes at 3,000 rpm. […]
Peak area and retention times were determined by the PE-Nelson Turbochrom (Version 4.1) system. […] The linearity of the method was evaluated suing standard responses from six concentration levels. […] The precision and accuracy of the method were evaluated from the back-calculated concentrations of the standards as well as from the quality control samples.

Regarding `CO[C@@]12[C@H](COC(N)=O)C3=C(C(=O)C(C)=C(N)C3=O)N1C[C@@H]1N[C@@H]12` [free MMC, mitomycin C], the IC50 is 285 ± 92 nM in data set [1] (Cysteine Concentration 0) and 300 ± 71 nM in data set [1] (Cysteine Concentration 1000 μM). In addition, in data set [2], the “dose remaining in the blood” value was “Virtually none”.

By IC50 is commonly meant the concentration that gives 50% inhibition.
